Reference: paper PMC6915728 (Nature Communications, 2019)
Read-outs that look alike come from different tables or passages of the source.

How the values were obtained:
[1] = test system: bacterial species in which the gene showed activity; details: cited from earlier work
[2] = test system: E. coli BW25113 overexpression strains (ASKA plasmids); experiment: Minimum inhibitory concentration (MIC), serial broth dilution, single-gene overexpression strains vs empty-vector control; format: cell-based, Escherichia coli; details: for Relative MIC: broth dilution, MS medium, 100 µM IPTG, 30 °C, 20-24 h, OD600, 3 replicates
Procedure, shortened: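 E. coli overexpression strains grown in MS medium with chloramphenicol, induced with 100 µM IPTG for 1 h at 30 °C, then about half-million cells inoculated into 12-step AMP dilutions (typically 1.2-fold steps). OD600 read after 20–24 h at 30 °C with shaking; triplicate strains compared with empty-vector control.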

[3] = test system: AMP-evolved E. coli lines; details: ref Spohn et al 2019, cited from earlier work
Description: Supplement 41467_2019_13618_MOESM13_ESM.xlsx, sheet "Figure 6 and S15" | column: A comprehensive dataset of antimicrobial susceptibility of AMP-adapted lines to antimicrobial peptides (AMPs).

[4] = test system: AMP-evolved E. coli lines; experiment: Cross-resistance / collateral sensitivity: relative MIC change of 38 laboratory-evolved AMP-resistant lines vs parental strain; format: cell-based, Escherichia coli; details: AMP-adapted line PR39_10; measured here

## ILPWKWPWWPWRR [IND, Indolicidin, antimicrobial peptide from bovine neutrophils; cluster C3]
[1]; Bordetella pertussis, ref http://www.ncbi.nlm.nih.gov/pmc/articles/PMC4136009/
  Gene that modulates bacterial susceptibility to the AMP: lgmA, IgmB, IgmC
[1]; Staphylococcus aureus, ref http://onlinelibrary.wiley.com/doi/10.1111/j.1365-2958.2007.05986.x/epdf
  Gene that modulates bacterial susceptibility to the AMP: apsS
[2]; mlaD overexpression strain relative to control (wild-type+empty vector), 3 replicates each, from optical density values of serial dilution plates, AMP in µg ml-1
  Average relative change in MIC: 0.82
[2]; overexpression strain cvpA, MIC of overexpression strain / MIC of empty-plasmid control
  Relative MIC: 0.76
[2]; overexpression strain hyfA, MIC of overexpression strain / MIC of empty-plasmid control
  Relative MIC: >1.2
[2]; overexpression strain mlaD, MIC of the overexpression strain / MIC of the control strain (wild-type carrying the empty plasmid)
  Relative MIC: 0.78
[2]; overexpression strain murA, MIC of overexpression strain / MIC of empty-plasmid control
  Relative MIC: 0.8
[2]; overexpression strain mzrA, MIC of overexpression strain / MIC of empty-plasmid control
  Relative MIC: 0.62
[2]; overexpression strain nikB, MIC of overexpression strain / MIC of empty-plasmid control
  Relative MIC: 0.76
[2]; overexpression strain ptsN, MIC of overexpression strain / MIC of empty-plasmid control
  Relative MIC: 0.76
[2]; overexpression strain rpoH, MIC of overexpression strain / MIC of empty-plasmid control
  Relative MIC: 0.64
[2]; overexpression strain uhpC, MIC of overexpression strain / MIC of empty-plasmid control
  Relative MIC: 0.8
[2]; overexpression strain yiaJ, MIC of overexpression strain / MIC of empty-plasmid control
  Relative MIC: 0.8
[2]; overexpression strain ytjB, MIC of overexpression strain / MIC of empty-plasmid control
  Relative MIC: 0.8
[3]; AMP-adapted line BAC5_3
  Relative change in MIC (MIC of the AMP-adpated line / MIC of the ancestral strain): 1.2
[3]; AMP-adapted line BAC5_5
  Relative change in MIC (MIC of the AMP-adpated line / MIC of the ancestral strain): 0.8
[3]; AMP-adapted line BAC5_7
  Relative change in MIC (MIC of the AMP-adpated line / MIC of the ancestral strain): 0.9
[3]; AMP-adapted line BAC5_10
  Relative change in MIC (MIC of the AMP-adpated line / MIC of the ancestral strain): 1
[3]; AMP-adapted line CAP18_2
  Relative change in MIC (MIC of the AMP-adpated line / MIC of the ancestral strain): 1
[3]; AMP-adapted line CAP18_5
  Relative change in MIC (MIC of the AMP-adpated line / MIC of the ancestral strain): 0.6
[3]; AMP-adapted line CAP18_6
  Relative change in MIC (MIC of the AMP-adpated line / MIC of the ancestral strain): 0.6
[3]; AMP-adapted line CAP18_8
  Relative change in MIC (MIC of the AMP-adpated line / MIC of the ancestral strain): 1
[3]; AMP-adapted line CAP18_10
  Relative change in MIC (MIC of the AMP-adpated line / MIC of the ancestral strain): 0.8
[3]; AMP-adapted line HBD3_3
  Relative change in MIC (MIC of the AMP-adpated line / MIC of the ancestral strain): 1.3
[3]; AMP-adapted line HBD3_6
  Relative change in MIC (MIC of the AMP-adpated line / MIC of the ancestral strain): 1
[3]; AMP-adapted line HBD3_8
  Relative change in MIC (MIC of the AMP-adpated line / MIC of the ancestral strain): 0.8
[3]; AMP-adapted line HBD3_10
  Relative change in MIC (MIC of the AMP-adpated line / MIC of the ancestral strain): 1.2
[3]; AMP-adapted line LL37_1
  Relative change in MIC (MIC of the AMP-adpated line / MIC of the ancestral strain): 0.8
[3]; AMP-adapted line LL37_3
  Relative change in MIC (MIC of the AMP-adpated line / MIC of the ancestral strain): 0.8
[3]; AMP-adapted line LL37_6
  Relative change in MIC (MIC of the AMP-adpated line / MIC of the ancestral strain): 0.6
[3]; AMP-adapted line LL37_7
  Relative change in MIC (MIC of the AMP-adpated line / MIC of the ancestral strain): 1
[3]; AMP-adapted line LL37_10
  Relative change in MIC (MIC of the AMP-adpated line / MIC of the ancestral strain): 0.8
[3]; AMP-adapted line PEX_1
  Relative change in MIC (MIC of the AMP-adpated line / MIC of the ancestral strain): 1
[3]; AMP-adapted line PEX_4
  Relative change in MIC (MIC of the AMP-adpated line / MIC of the ancestral strain): 1.4
[3]; AMP-adapted line PEX_5
  Relative change in MIC (MIC of the AMP-adpated line / MIC of the ancestral strain): 1
[3]; AMP-adapted line PEX_6
  Relative change in MIC (MIC of the AMP-adpated line / MIC of the ancestral strain): 1
[3]; AMP-adapted line PEX_7
  Relative change in MIC (MIC of the AMP-adpated line / MIC of the ancestral strain): 1.2
[3]; AMP-adapted line PR39_1
  Relative change in MIC (MIC of the AMP-adpated line / MIC of the ancestral strain): 1.1
[3]; AMP-adapted line PR39_2
  Relative change in MIC (MIC of the AMP-adpated line / MIC of the ancestral strain): 1
[3]; AMP-adapted line PR39_5
  Relative change in MIC (MIC of the AMP-adpated line / MIC of the ancestral strain): 1.3
[3]; AMP-adapted line PR39_7
  Relative change in MIC (MIC of the AMP-adpated line / MIC of the ancestral strain): 0.9
[3]; AMP-adapted line PROA_2
  Relative change in MIC (MIC of the AMP-adpated line / MIC of the ancestral strain): 1.1
[3]; AMP-adapted line PROA_3
  Relative change in MIC (MIC of the AMP-adpated line / MIC of the ancestral strain): 0.8
[3]; AMP-adapted line PROA_7
  Relative change in MIC (MIC of the AMP-adpated line / MIC of the ancestral strain): 0.8
[3]; AMP-adapted line PROA_8
  Relative change in MIC (MIC of the AMP-adpated line / MIC of the ancestral strain): 1.1
[3]; AMP-adapted line PROA_9
  Relative change in MIC (MIC of the AMP-adpated line / MIC of the ancestral strain): 1
[3]; AMP-adapted line PXB_2
  Relative change in MIC (MIC of the AMP-adpated line / MIC of the ancestral strain): 2.1
[3]; AMP-adapted line PXB_5
  Relative change in MIC (MIC of the AMP-adpated line / MIC of the ancestral strain): 3
[3]; AMP-adapted line PXB_6
  Relative change in MIC (MIC of the AMP-adpated line / MIC of the ancestral strain): 3
[3]; AMP-adapted line PXB_8
  Relative change in MIC (MIC of the AMP-adpated line / MIC of the ancestral strain): 2.7
[3]; AMP-adapted line PXB_10
  Relative change in MIC (MIC of the AMP-adpated line / MIC of the ancestral strain): 1.6
[4]
  Relative change in MIC (MIC of the AMP-adpated line / MIC of the ancestral strain): 1.3
